Columns and labels:
Experiment in all cases: relative viability (nuclei count vs DMSO), 5 days (fraction); higher = more cells survive
NCI-H1355 = test system: NCI-H1355
Method in brief: (§1)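 Lung cancer cell lines were pin-tool dosed in 1536-well plates on the day after seeding, with either a lone drug or a fixed anchor-drug dose plus five library-drug doses (not always all listed) in √10 steps. Nuclei were counted on 4× images after 5 days. Relative viability is the ratio of treated-well to vehicle-well nuclei counts, with each value a median of duplicate plates.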

HCC-827 = test system: HCC-827
Method in brief: as §1

HCC-366 = test system: HCC-366
Method in brief: as §1

NCI-H2085 = test system: NCI-H2085
Method in brief: as §1

NCI-H2009 = test system: NCI-H2009
Method in brief: as §1

NCI-H460 = test system: NCI-H460
Method in brief: as §1

ChaGo-K-1 = test system: ChaGo-K-1
Method in brief: as §1

NCI-H1993 = test system: NCI-H1993
Method in brief: as §1

H3255 = test system: H3255
Method in brief: as §1

NCI-H2342 = test system: NCI-H2342
Method in brief: as §1

EKVX = test system: EKVX
Method in brief: as §1

CAL-12T = test system: CAL-12T
Method in brief: as §1

NCI-H2228 = test system: NCI-H2228
Method in brief: as §1

SK-MES-1 = test system: SK-MES-1
Method in brief: as §1

NCI-H1975 = test system: NCI-H1975
Method in brief: as §1

NCI-H441 = test system: NCI-H441
Method in brief: as §1

NCI-H322M = test system: NCI-H322M
Method in brief: as §1

EPLC-272H = test system: EPLC-272H
Method in brief: as §1

ABC-1 = test system: ABC-1
Method in brief: as §1

COR-L 105 = test system: COR-L 105
Method in brief: as §1

NCI-H2087 = test system: NCI-H2087
Method in brief: as §1

## Cc1csc(=NC2CCCCC2)n1/N=C/c1ccc(O)c(O)c1O [MIM1] + Cc1cc(Nc2cc(N3CCN(C)CC3)nc(Sc3ccc(NC(=O)C4CC4)cc3)n2)n[nH]1 [Tozasertib] (partner 0.1 µM)
NCI-H1355; first compound 0.2 µM
  relative viability: 0.588
NCI-H1355; first compound 0.6325 µM
  relative viability: 0.557
NCI-H1355; first compound 2 µM
  relative viability: 0.519
NCI-H1355; first compound 6.325 µM
  relative viability: 0.464
NCI-H1355; first compound 20 µM
  relative viability: 0.3
HCC-827; first compound 0.2 µM
  relative viability: 0.43
HCC-827; first compound 0.6325 µM
  relative viability: 0.404
HCC-827; first compound 2 µM
  relative viability: 0.411
HCC-827; first compound 6.325 µM
  relative viability: 0.169
HCC-827; first compound 20 µM
  relative viability: 0.177
HCC-366; first compound 0.2 µM
  relative viability: 0.147
HCC-366; first compound 2 µM
  relative viability: 0.134
HCC-366; first compound 6.325 µM
  relative viability: 0.026
HCC-366; first compound 20 µM
  relative viability: 0.0212
NCI-H2085; first compound 0.2 µM
  relative viability: 0.781
NCI-H2085; first compound 0.6325 µM
  relative viability: 0.755
NCI-H2085; first compound 2 µM
  relative viability: 0.763
NCI-H2085; first compound 6.325 µM
  relative viability: 0.598
NCI-H2085; first compound 20 µM
  relative viability: 0.533
NCI-H2009; first compound 0.2 µM
  relative viability: 0.754
NCI-H2009; first compound 0.6325 µM
  relative viability: 0.701
NCI-H2009; first compound 2 µM
  relative viability: 0.859
NCI-H2009; first compound 6.325 µM
  relative viability: 0.622
NCI-H2009; first compound 20 µM
  relative viability: 0.725
NCI-H460; first compound 0.2 µM
  relative viability: 0.447
NCI-H460; first compound 0.6325 µM
  relative viability: 0.499
NCI-H460; first compound 2 µM
  relative viability: 0.149
NCI-H460; first compound 20 µM
  relative viability: 0.0359
ChaGo-K-1; first compound 0.2 µM
  relative viability: 0.246
ChaGo-K-1; first compound 0.6325 µM
  relative viability: 0.232
ChaGo-K-1; first compound 2 µM
  relative viability: 0.204
ChaGo-K-1; first compound 6.325 µM
  relative viability: 0.196
ChaGo-K-1; first compound 20 µM
  relative viability: 0.155
NCI-H1993; first compound 0.2 µM
  relative viability: 0.57
NCI-H1993; first compound 0.6325 µM
  relative viability: 0.538
NCI-H1993; first compound 2 µM
  relative viability: 0.539
NCI-H1993; first compound 6.325 µM
  relative viability: 0.518
NCI-H1993; first compound 20 µM
  relative viability: 0.433
H3255; first compound 0.2 µM
  relative viability: 0.526
H3255; first compound 0.6325 µM
  relative viability: 0.54
H3255; first compound 2 µM
  relative viability: 0.601
H3255; first compound 6.325 µM
  relative viability: 0.537
H3255; first compound 20 µM
  relative viability: 0.277
NCI-H2342; first compound 0.2 µM
  relative viability: 0.429
NCI-H2342; first compound 0.6325 µM
  relative viability: 0.58
NCI-H2342; first compound 2 µM
  relative viability: 0.53
NCI-H2342; first compound 6.325 µM
  relative viability: 0.508
NCI-H2342; first compound 20 µM
  relative viability: 0.575
EKVX; first compound 0.2 µM
  relative viability: 0.474
EKVX; first compound 0.6325 µM
  relative viability: 0.357
EKVX; first compound 2 µM
  relative viability: 0.355
EKVX; first compound 6.325 µM
  relative viability: 0.28
EKVX; first compound 20 µM
  relative viability: 0.337
CAL-12T; first compound 0.2 µM
  relative viability: 0.244
CAL-12T; first compound 0.6325 µM
  relative viability: 0.254
CAL-12T; first compound 2 µM
  relative viability: 0.303
CAL-12T; first compound 6.325 µM
  relative viability: 0.206
CAL-12T; first compound 20 µM
  relative viability: 0.204
NCI-H2228; first compound 0.2 µM
  relative viability: 0.257
NCI-H2228; first compound 0.6325 µM
  relative viability: 0.284
NCI-H2228; first compound 2 µM
  relative viability: 0.234
NCI-H2228; first compound 6.325 µM
  relative viability: 0.203
NCI-H2228; first compound 20 µM
  relative viability: 0.123
SK-MES-1; first compound 0.2 µM
  relative viability: 0.909
SK-MES-1; first compound 0.6325 µM
  relative viability: 0.848
SK-MES-1; first compound 2 µM
  relative viability: 0.742
SK-MES-1; first compound 6.325 µM
  relative viability: 0.643
SK-MES-1; first compound 20 µM
  relative viability: 0.492
NCI-H1975; first compound 0.2 µM
  relative viability: 0.643
NCI-H1975; first compound 0.6325 µM
  relative viability: 0.807
NCI-H1975; first compound 2 µM
  relative viability: 0.699
NCI-H1975; first compound 6.325 µM
  relative viability: 0.338
NCI-H1975; first compound 20 µM
  relative viability: 0.254
NCI-H441; first compound 0.2 µM
  relative viability: 0.675
NCI-H441; first compound 2 µM
  relative viability: 0.599
NCI-H441; first compound 6.325 µM
  relative viability: 0.376
NCI-H441; first compound 20 µM
  relative viability: 0.312
NCI-H322M; first compound 0.2 µM
  relative viability: 0.497
NCI-H322M; first compound 0.6325 µM
  relative viability: 0.456
NCI-H322M; first compound 2 µM
  relative viability: 0.513
NCI-H322M; first compound 6.325 µM
  relative viability: 0.447
NCI-H322M; first compound 20 µM
  relative viability: 0.26
EPLC-272H; first compound 0.2 µM
  relative viability: 0.425
EPLC-272H; first compound 0.6325 µM
  relative viability: 0.226
EPLC-272H; first compound 2 µM
  relative viability: 0.219
EPLC-272H; first compound 6.325 µM
  relative viability: 0.372
EPLC-272H; first compound 20 µM
  relative viability: 0.124
ABC-1; first compound 0.2 µM
  relative viability: 0.228
ABC-1; first compound 0.6325 µM
  relative viability: 0.182
ABC-1; first compound 2 µM
  relative viability: 0.21
ABC-1; first compound 6.325 µM
  relative viability: 0.206
ABC-1; first compound 20 µM
  relative viability: 0.194
COR-L 105; first compound 0.2 µM
  relative viability: 0.573
COR-L 105; first compound 0.6325 µM
  relative viability: 0.35
COR-L 105; first compound 2 µM
  relative viability: 0.341
COR-L 105; first compound 6.325 µM
  relative viability: 0.354
COR-L 105; first compound 20 µM
  relative viability: 0.338
NCI-H2087; first compound 0.2 µM
  relative viability: 0.26
NCI-H2087; first compound 0.6325 µM
  relative viability: 0.284
NCI-H2087; first compound 2 µM
  relative viability: 0.249
NCI-H2087; first compound 6.325 µM
  relative viability: 0.22
NCI-H2087; first compound 20 µM
  relative viability: 0.2
